Source: patent publication US20160206633A1, “dhS1P AND USE OF SAME AS AN ANTICANCER THERAPEUTIC AND IMMUNOMODULATOR” (Penn State Research Foundation, Inc., priority 2013, published 2016)

Legend:
[1] = tested on: splenic IMCs (Gr-1+CD11b+, MDSCs) from MDA-MB-231 tumor-bearing athymic nude mice; assay: Isolated IMCs/MDSCs exposed in culture to dhS1P or S1P, multicolor flow cytometry; format: cell-based; conditions: 5 μM, 24-hour culture
Description: (A) Splenic IMCs (Gr-1+CD11b+, also defined as MDSCs: myeloid-derived suppressor cells) were isolated from MDA-MB-231 tumor-bearing athymic nude mice and exposed to BSA, S1P (5 μM), or dhS1P (5 μM). Following 24-hour culture incubation, cells were labeled with specific antibodies and analyzed by multicolor flow cytometry (red: IMCs; blue: possible B-cells). (B) Splenic IMCs were isolated from MDA-MB-231 tumor-bearing athymic nude mice and cultured (5×10^4 cells/mL) in GEMM-supportive semi-solid media with BSA, S1P (5 μM), or dhS1P (5 μM). GEMM colonies (multipotent myeloid progenitor cells) were visualized and counted after 3 weeks of culture. ANOVA, *p<0.01 compared to no treatment or BSA-treatment, ***p<0.001 compared to S1P-treatment, n≧3. (C) Splenic hematopoietic progenitors (Lineage-Sca-1+CD117+) were isolated from MDA-MB-231 tumor-bearing athymic nude mice and exposed to BSA, S1P (5 μM), or dhS1P (5 μM). Following 24-hour culture incubation, cells were labeled with specific antibodies and analyzed by multicolor flow cytometry.
The effect of dhS1P was further investigated at the level of MDSC-like cells, which were reduced as a function of treatment. The effects of dhS1P were directly compared with those of S1P as to delineate a difference in their physiological roles. Tumor-expanded IMCs/MDSCs were isolated and exposed in culture to either dhS1P or S1P. […]

[2] = tested on: isolated MDSC-like cells; assay: Whole-genome RNA microarray of isolated MDSC-like cells after dhS1P; format: cell-based, athymic nude mice; conditions: 24 hours dhS1P vs vehicle (BSA); fold-change cut-off 1.2, p-value cut-off 0.05
Description: To more closely evaluate the genetic consequences of the dhS1P-induced decrease in isolated MDSC-like cells and the increase in cells bearing the surface markers of B-cells, a RNA microarray analysis was conducted. MDSC-like cells were isolated from MDA-MB-231 tumor-bearing athymic nude mice, exposed for 24 hours to dhS1P or vehicle (BSA), followed by RNA extraction, and a whole-genome microarray was performed. As compared to vehicle-treated MDSC-like cells, dhS1P treatment of isolated MDSC-like cells altered the expression of a variety of genes.
Isolated MDSC-like cells were cultured for 24 hours in media containing BSA, or dhS1P ([…]), before collection and washing via centrifugation. […]
cDNA was purified according to standard procedures. cDNA was in vitro transcribed to synthesize cRNA using a MEGAscript kit (Ambion, Austin, Tex.). Samples were incubated with T7 10× reaction buffer, T7 Enzyme mix and Biotin-NTP mix at 37° C. for 14 hours. cRNA was purified according to instructions, and the yield was measured using a NanoDrop ND-1000 (NanoDrop Products, Wilmington, Del.). […] BeadChips were dried by centrifugation at 275×g for 4 minutes and subsequently scanned using a BeadArray Reader. […]

CCCCCCCCCCCCCCC[C@@H](O)[C@@H](N)COP(=O)(O)O [dhS1P, dihydrosphingosine-1-phosphate]
Population of cells displaying CD19 and CD45R B220 in isolated IMC culture [1]: promoted the expansion | Cells bearing the surface characteristics of IMCs/MDSCs (Gr-1+CD11b+) ([1]; normal culture conditions): completely ablated | Number of significantly regulated genes [2]: 319
